Results from patent US20090010902A1 (priority 2007, published 2009).

Tests used:
[1] = system: TLR4 mRNA in human intestinal tract epithelial cell strain HT-29; format: cell-based
TLR4 protein = details: summary statement; no method described

## CCCC(=O)O [butyric acid]
[1]
  TLR4 mRNA expression (result in words): similarly reduced
TLR4 protein
  expression amount of TLR4 protein (result in words): reduced
